Results published in patent US7855166B2, “Sulfonylamino(thio)carbonyl compounds” (Bayer Cropscience GmbH, priority 2005, dated 2010).

Legend:
[1] = system: weed plants such as Sinapis alba, Chrysanthemum segetum, Avena sativa, Stellaria media, Echinochloa crus-galli, Lolium multiflorum, Setaria viridis, Abutilon …; experiment: Pre-emergence effect on weeds (greenhouse pot test, visual scoring); assay type: in vivo; conditions: applied pre-emergence at a rate of 0.3 kg or less of active substance per hectare; scored after 3 to 4 weeks in comparison to untreated controls
[2] = system: weed plants such as Sinapis alba, Echinochloa crus-galli, Lolium multiflorum, Chrysanthemum segetum, Setaria viridis, Abutilon theophrasti, Amaranthus …; experiment: Post-emergence effect on weeds (greenhouse pot test, visual scoring); assay type: in vivo; conditions: applied post-emergence (three-leaf stage) at a rate of 0.3 kg or less of active substance per hectare; scored after about 3 to 4 weeks in comparison to untreated controls

Row | Compound | herbicidal action against weed plants (visual scoring of plant damage or emergence damage) [1] | herbicidal action against weed plants (effect scored visually) [2]
1 | CCOc1nn(C(=O)NS(=O)(=O)c2c(I)cccc2OCC2CC2)c(=O)n1C [Compound 1.349] | very good herbidical action | very good herbicidal action
2 | CC(C)Oc1nn(C(=O)NS(=O)(=O)c2c(F)cccc2I)c(=O)n1C [Compound 1.024] | very good herbidical action | very good herbicidal action
3 | COc1nn(C(=O)NS(=O)(=O)c2ccc(F)cc2I)c(=O)n1C1CC1 [Compound 1.825] | very good herbidical action | very good herbicidal action
4 | COc1nn(C(=O)NS(=O)(=O)c2c(I)cccc2OCC(F)F)c(=O)n1C [Compound 1.501] | very good herbidical action | very good herbicidal action
5 | CCOc1nn(C(=O)NS(=O)(=O)c2ccccc2I)c(=O)n1C1CC1 [Compound 1.011] | very good herbidical action | very good herbicidal action
6 | CCCOc1nn(C(=O)NS(=O)(=O)c2cccc(Cl)c2I)c(=O)n1C1CC1 [Compound 1.834] | very good herbidical action | very good herbicidal action
7 | CCCOc1nn(C(=O)NS(=O)(=O)c2c(I)cccc2OCC(F)F)c(=O)n1C1CC1 [Compound 1.514] | very good herbidical action | very good herbicidal action
8 | CCOc1nn(C(=O)NS(=O)(=O)c2c(I)cccc2C(F)(F)F)c(=O)n1C1CC1 [Compound 1.143] | very good herbidical action | very good herbicidal action
9 | CCCOc1cccc(I)c1S(=O)(=O)NC(=O)n1nc(SCC)n(C)c1=O [Compound 1.237] | very good herbidical action | very good herbicidal action
10 | CCOc1nn(C(=O)NS(=O)(=O)c2c(I)cccc2OC(C)C(F)(F)F)c(=O)n1C1CC1 (stereo not shown) [Compound 1.532] | very good herbidical action | very good herbicidal action
11 | CCCc1ccc(S(=O)(=O)NC(=O)n2nc(OCC)n(C3CC3)c2=O)c(I)c1 [Compound 1.881] | very good herbidical action | very good herbicidal action
12 | COc1nn(C(=O)NS(=O)(=O)c2c(I)cccc2OCC(F)(F)C(F)(F)F)c(=O)n1C1CC1 [Compound 1.552] | very good herbidical action | very good herbicidal action
13 | O=C(NS(=O)(=O)c1ccc(C(F)(F)F)cc1I)n1nc(C2CC2)n(C2CC2)c1=O [Compound 1.892] | very good herbidical action | very good herbicidal action
14 | CCOc1nn(C(=O)NS(=O)(=O)c2cc(C(F)(F)F)ccc2I)c(=O)n1C [Compound 1.836] | very good herbidical action | very good herbicidal action
15 | COc1nn(C(=O)NS(=O)(=O)c2c(I)cccc2OCC(F)(F)C(F)(F)F)c(=O)n1C [Compound 1.544] | very good herbidical action | very good herbicidal action
16 | CCOc1nn(C(=O)NS(=O)(=O)c2cc(C(F)(F)F)ccc2I)c(=O)n1C1CC1 [Compound 1.840] | very good herbidical action | very good herbicidal action
17 | CCCOc1nn(C(=O)NS(=O)(=O)c2c(I)cccc2OCC(F)(F)C(F)(F)F)c(=O)n1C1CC1 [Compound 1.558] | very good herbidical action | very good herbicidal action
18 | CCOc1nn(C(=O)NS(=O)(=O)c2ccc(Cl)cc2I)c(=O)n1C [Compound 1.870] | very good herbidical action | very good herbicidal action
19 | COc1nn(C(=O)NS(=O)(=O)c2c(I)cccc2OS(C)(=O)=O)c(=O)n1C [Compound 1.711] | very good herbidical action | very good herbicidal action

Row | Compound | herbicidal action against weed plants (visual scoring of plant damage or emergence damage) [1] | herbicidal action against weed plants (effect scored visually) [2]
20 | COc1nn(C(=O)NS(=O)(=O)c2c(I)cccc2OCC(F)(F)F)c(=O)n1C1CC1 [Compound 1.488] | very good herbidical action | very good herbicidal action
21 | COc1nn(C(=O)NS(=O)(=O)c2c(I)cccc2OC(F)F)c(=O)n1C1CC1 [Compound 1.467] | very good herbidical action | very good herbicidal action
22 | CCCCc1ccc(S(=O)(=O)NC(=O)n2nc(OCC)n(C)c2=O)c(I)c1 [Compound 1.883] | very good herbidical action | very good herbicidal action
23 | CCCOc1nn(C(=O)NS(=O)(=O)c2c(I)cccc2OCC2CC2)c(=O)n1C1CC1 [Compound 1.359] | very good herbidical action | very good herbicidal action
24 | CCCCc1ccc(S(=O)(=O)NC(=O)n2nc(OCC)n(C3CC3)c2=O)c(I)c1 [Compound 1.887] | very good herbidical action | very good herbicidal action
25 | CCOc1nn(C(=O)NS(=O)(=O)c2ccc(Cl)cc2I)c(=O)n1C1CC1 [Compound 1.874] | very good herbidical action | very good herbicidal action
26 | COc1nn(C(=O)NS(=O)(=O)c2c(I)cccc2OC(F)(F)F)c(=O)n1C1CC1 [Compound 1.447] | very good herbidical action | very good herbicidal action
27 | CCOc1nn(C(=O)NS(=O)(=O)c2c(Cl)ccc(Cl)c2I)c(=O)n1C1CC1 [Compound 1.854] | very good herbidical action | very good herbicidal action
28 | CCCCc1ccc(S(=O)(=O)NC(=O)n2nc(OC)n(C3CC3)c2=O)c(I)c1 [Compound 1.886] | very good herbidical action | very good herbicidal action
29 | CCCOc1nn(C(=O)NS(=O)(=O)c2c(Cl)ccc(Cl)c2I)c(=O)n1C [Compound 1.851] | very good herbidical action | very good herbicidal action
30 | CCOc1cccc(I)c1S(=O)(=O)NC(=O)n1nc(OCC)n(C)c1=O [Compound 1.214] | very good herbidical action | very good herbicidal action
31 | CCCOc1nn(C(=O)NS(=O)(=O)c2ccccc2I)c(=O)n1C [Compound 1.005] | very good herbidical action | very good herbicidal action
32 | COc1nn(C(=O)NS(=O)(=O)c2c(Cl)cc(C(F)(F)F)cc2I)c(=O)n1C [Compound 1.842] | very good herbidical action | very good herbicidal action
33 | CCOc1nn(C(=O)NS(=O)(=O)c2c(F)cccc2I)c(=O)n1C [Compound 1.022] | very good herbidical action | very good herbicidal action
34 | COc1cccc(I)c1S(=O)(=O)NC(=O)n1nc(OC(C)C)n(C)c1=O [Compound 1.196] | very good herbidical action | very good herbicidal action
35 | CCOc1nn(C(=O)NS(=O)(=O)c2cccc(Cl)c2I)c(=O)n1C [Compound 1.829] | very good herbidical action | very good herbicidal action
36 | CCOc1nn(C(=O)NS(=O)(=O)c2cccc(Cl)c2I)c(=O)n1C1CC1 [Compound 1.833] | very good herbidical action | very good herbicidal action
37 | CCCOc1cccc(I)c1S(=O)(=O)NC(=O)n1nc(OC)n(C)c1=O [Compound 1.231] | very good herbidical action | very good herbicidal action
38 | COc1nn(C(=O)NS(=O)(=O)c2ccc(F)cc2I)c(=O)n1C [Compound 1.823] | very good herbidical action | very good herbicidal action
